Patent publication US20200123175A1, “NOVEL ISOTHIAZOLO-BASED BICYCLES, PROCESSES FOR THEIR PREPARATION AND THEIR USE AS HERBICIDES AND/OR PLANT GROWTH REGULATORS” (Bayer CropScience Aktiengesellschaft, priority 2017, published 2020)

Legend:
Settings in all cases: dosage 320 g/ha
ECHCG = test: Herbicidal action pre-emergence (PE); type: in vivo, Echinochloa crus-galli
SETVI [1] = test: Herbicidal action pre-emergence (PE); type: in vivo, Setaria viridis
AMARE [2] = test: Herbicidal action pre-emergence (PE); type: in vivo, Amaranthus retroflexus
VIOTR [3] = test: Herbicidal action pre-emergence (PE); type: in vivo, Viola tricolor
MATIN = test: Herbicidal action pre-emergence (PE); type: in vivo, Matricaria inodora
POLCO = test: Herbicidal action pre-emergence (PE); type: in vivo, Polygonum convolvulus
SETVI [4] = test: Herbicidal action post-emergence (PO); type: in vivo, Setaria viridis
AMARE [5] = test: Herbicidal action post-emergence (PO); type: in vivo, Amaranthus retroflexus
VIOTR [6] = test: Herbicidal action post-emergence (PO); type: in vivo, Viola tricolor
ABUTH = test: Herbicidal action post-emergence (PO); type: in vivo, Abutilon theophrasti
PHBPU = test: Herbicidal action post-emergence (PO); type: in vivo, Pharbitis purpurea

SMILES	ECHCG (ECHCG)	SETVI (SETVI [1])	AMARE (AMARE [2])	VIOTR (VIOTR [3])	MATIN (MATIN)	POLCO (POLCO)	SETVI (SETVI [4])	AMARE (AMARE [5])	VIOTR (VIOTR [6])	ABUTH (ABUTH)	PHBPU (PHBPU)
COC(=O)CC(=O)Nc1nsc2c(=O)n(CC3CCCCC3)cnc12 [Example I-71]	100	100	100	100	100	100	100	100	100	100	100
Nc1nsc2c(=O)n(CC3CCCCCC3)cnc12 [Example I-31]	90	100	100	100	100	100					
Nc1nsc2c1NCN(CC1CCCCCC1)C2=O [Example I-59, 3-amino-6-(cycloheptylmethyl)-4,5-dihydroisothiazolo[4,5-d]pyrimidin-7-one]	100	100	100	100	100	100	100	100	100	100	100
CCC(=O)Nc1nsc2c(=O)n(CC3CCCCC3)cnc12 [Example I-54]	100	100	100	100	100	100		100	90	100	
Nc1nsc2c(=O)n(CC3CCCCC3)cnc12 [Example I-17]	100	100	100	100	100	100	100	100	100	90	100
CC(=O)Nc1nsc2c(=O)n(CC3CCCCC3)cnc12 [Example I-55]	100	100	100	100	100	100		100	100	100	
O=C(CC(F)(F)F)Nc1nsc2c(=O)n(CC3CCCCC3)cnc12 [Example I-73]	100	100	100	100	100	100		100	100	100	
O=C(Nc1nsc2c(=O)n(CC3CCCCC3)cnc12)C(F)(F)C(F)(F)C(F)(F)F [Example I-58]	100	100	100	100	90	90		100	100	90	
Nc1nsc2c1NCN(CC1CCCC1)C2=O [Example I-63]	100	100	100	100	100	100		100	100	100	
O=C(Nc1nsc2c(=O)n(Cc3ccc(F)cc3F)cnc12)C(F)(Cl)C(F)(F)F (centres unmarked) [Example I-77]	80	100	100	100	100	100					
O=C(Nc1nsc2c(=O)n(CC3CCCCC3)cnc12)C(F)(Cl)C(F)(F)F (centres unmarked) [Example I-67]	100	100	100	100	100	100					
CC(c1ccccc1)n1cnc2c(NC(=O)C3CC3)nsc2c1=O (centres unmarked) [Example I-40]							90	100	100	100	100
O=C(CCl)Nc1nsc2c(=O)n(CC3CCCCC3)cnc12 [Example I-56]	100	100	100	100	90	100					
O=C(Nc1nsc2c(=O)n(Cc3ccc(F)cc3F)cnc12)C(F)(F)C(F)(F)Cl [Example I-76]	90	100	100	100	100	100		100	100	80	
O=C(Nc1nsc2c(=O)n(CC3CCCCC3)cnc12)C(F)(F)C(F)(F)F [Example I-57]	100	100	100	100	100	100		100	100	100	
O=C(CC(F)(F)F)Nc1nsc2c(=O)n(Cc3ccc(F)cc3F)cnc12 [Example I-82]	100	100	100	100	100	100					
COCC(=O)Nc1nsc2c(=O)n(Cc3ccc(F)cc3F)cnc12 [Example I-83]	100	100	100	100	100	90					
Cc1nn(CC2CCCCC2)c(=O)c2snc(N)c12 [Example I-75, 3-amino-6-(cyclohexylmethyl)-4-methyl-isothiazolo[4,5-d]pyridazin-7-one]	90	100	100	90	90	90					
CCCC(=O)Nc1nsc2c(=O)n(CC3CCCCC3)cnc12 [Example I-45]	100	100	100	100	100	100		100	90	100	
Nc1nsc2c1NCN(CC1CCCCO1)C2=O (centres unmarked) [Example I-43]	100	90	100	100	90	100					
Nc1nsc2c1NCN(Cc1ccc(F)cc1)C2=O [Example I-64]	100	100	100	100	100	90		100	80	90	
COC(=O)C(=O)Nc1nsc2c(=O)n(Cc3ccc(F)cc3F)cnc12 [Example I-81]	100	90	100	100	100	100					
